The subject of one experiment is HTT mRNA. Nature of the experiment: Splicing RT-qPCR assay, HTT canonical (CJ) and alternative (AJ) junction mRNA. Type of experiment: cell-based, human. Conditions: Homo sapiens, A673 or K562 cells, 24 hours compound treatment; for pIC50: 24 h, read-out: HTT CJ (IC50, decrease in canonical junction mRNA); for AC50: read-out: HTT AJ (AC50, increase in alternative junction mRNA). The method, boiled down:
(§1)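 Read-out is the abundance of canonical-junction versus new alternative-exon-junction mRNA, determined by real-time qPCR after cDNA synthesis and normalized to a housekeeping gene. It is measured in A673 or K562 cells exposed to compounds for 24 h, top dose 10 uM.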
A general note: In qPCR the cycle at which signal appears reflects the starting amount.

A further experiment deals with MYB mRNA. As to the kind of experiment: Splicing RT-qPCR assay, MYB canonical (CJ) and alternative (AJ) junction mRNA. Format: cell-based, human. Particulars: Homo sapiens, 24 h, A673 or K562 cells, 24 hours compound treatment, RT-qPCR; for AC50: read-out: MYB AJ (AC50, increase in alternative junction mRNA); for pIC50: read-out: MYB CJ (IC50, decrease in canonical junction mRNA). The essentials:
as §1

pIC50: −log10 of the molar value.

`Cc1cn2cc(NC(=O)c3ccc(N4CCNCC4)c4cn(C)nc34)ccc2n1` [Compound 518, 2-methyl-N-{2-methylimidazo[1,2-a]pyridin-6-yl}-4-(piperazin-1-yl) indazole-7-carboxamide]: in the experiment on HTT mRNA, the pIC50 is 5.00 to 6.00 and the half-maximal activity concentration (AC50) was in the range of 1000 to 10000 nM. Besides, in the experiment on MYB mRNA, the AC50 is under 100 nM and the pIC50 was 6.00 to 7.00.
Consider `CCN[C@@H]1CCN(c2ccc(C(=O)Nc3cc(F)c4nc(C)cn4c3)c3nn(C)cc23)C1` [Compound 520, 4-[(3R)-3-(ethylamino)pyrrolidin-1-yl]-N-{8-fluoro-2-methylimidazo[1,2-a]pyridin-6-yl}-2-methylindazole-7-carboxamide], for which the pIC50 is 5.00 to 6.00 in the experiment with HTT mRNA and over 7.00 in the experiment with MYB mRNA. In addition, the concentration at half-maximal activity (AC50) was 1000 to 10000 nM in the experiment with HTT mRNA and under 100 nM with MYB mRNA.
With `Cc1cn2cc(NC(=O)c3ccc(N4CC[C@@H](NCC5CC5)C4)c4cn(C)nc34)cc(F)c2n1` [Compound 522, 4-[(3R)-3-[(cyclopropylmethyl)amino]pyrrolidin-1-yl]-N-{8-fluoro-2-methylimidazo[1,2-a]pyridin-6-yl}-2-methylindazole-7-carboxamide], in the experiment on HTT mRNA, the negative logarithm of the IC50 (pIC50) was 5.00 to 6.00 and the AC50 fell in the range of 1000 to 10000 nM. For the same compound, in the experiment on MYB mRNA, the AC50 lay in the range of 100 to 1000 nM and the pIC50 is over 7.00.
With `Cc1cn2cc(NC(=O)c3ccc(N4CC[C@@H](NC(C)C)C4)c4cn(C)nc34)cc(F)c2n1` [Compound 524, N-{8-fluoro-2-methylimidazo[1,2-a]pyridin-6-yl}-4-[(3R)-3-(isopropylamino)pyrrolidin-1-yl]-2-methylindazole-7-carboxamide], in the experiment on HTT mRNA, the pIC50 is under 5.00 and the AC50 was over 10000 nM. In the experiment on MYB mRNA, the half-maximal activity concentration (AC50) was under 100 nM and the pIC50 was over 7.00.
For `CCn1cc2c(N3CCC(C)(NC4CC4)CC3)ccc(C(=O)Nc3cc(F)c4nc(C)cn4c3)c2n1` [Compound 525, 4-[4-(cyclopropylamino)-4-methylpiperidin-1-yl]-2-ethyl-N-{8-fluoro-2-methylimidazo[1,2-a]pyridin-6-yl}indazole-7-carboxamide], in the experiment on HTT mRNA, the negative logarithm of the IC50 (pIC50) is 6.00 to 7.00 and the concentration at half-maximal activity (AC50) lay in the range of 100 to 1000 nM. For the same compound, in the experiment with MYB mRNA, the concentration at half-maximal activity (AC50) is under 100 nM and the pIC50 was over 7.00.
Regarding `CCn1cc2c(C3CCNC3)ccc(C(=O)Nc3cc(F)c4nccn4c3)c2n1` (stereo not drawn) [Compound 526, 2-ethyl-N-{8-fluoroimidazo[1,2-a]pyridin-6-yl}-4-(pyrrolidin-3-yl) indazole-7-carboxamide], the negative logarithm of the IC50 (pIC50) in the experiment with HTT mRNA is under 5.00; in the experiment with MYB mRNA it was 5.00 to 6.00. The half-maximal activity concentration (AC50) was over 10000 nM in the experiment on HTT mRNA and 1000 to 10000 nM in the experiment on MYB mRNA.
As for `CCN(c1ccc(C(=O)Nc2cc(F)c3nc(C)cn3c2)c2nn(C)cc12)C1CCNCC1` [Compound 527, 4-[ethyl(piperidin-4-yl)amino]-N-{8-fluoro-2-methylimidazo[1,2-a]pyridin-6-yl}-2-methylindazole-7-carboxamide], in the experiment with HTT mRNA, the negative logarithm of the IC50 (pIC50) is under 5.00 and the half-maximal activity concentration (AC50) was over 10000 nM. Moreover, in the experiment with MYB mRNA, the concentration at half-maximal activity (AC50) is 100 to 1000 nM and the pIC50 is 6.00 to 7.00.
For `Cc1cn2cc(NC(=O)c3cc(Cl)c(N4CCNCC4)c4cn(C)nc34)cc(F)c2n1` [Compound 528, 5-chloro-N-{8-fluoro-2-methylimidazo[1,2-a]pyridin-6-yl}-2-methyl-4-(piperazin-1-yl) indazole-7-carboxamide], in the experiment with HTT mRNA, the pIC50 was under 5.00 and the half-maximal activity concentration (AC50) was over 10000 nM. Further, in the experiment with MYB mRNA, the concentration at half-maximal activity (AC50) fell in the range of 100 to 1000 nM and the negative logarithm of the IC50 (pIC50) was 6.00 to 7.00.
On the same counts, the results for `COc1nc(NC(=O)c2ccc(N3CCNCC3)c3cn(C)nc23)cc2oc(C)nc12` [Compound 529, N-{4-methoxy-2-methyl-[1,3]oxazolo[4,5-c]pyridin-6-yl}-2-methyl-4-(piperazin-1-yl) indazole-7-carboxamide] are over 7.00, 100 to 1000 nM, under 100 nM and over 7.00.
`Cc1cn2cc(NC(=O)c3ccc(N4CC[C@@H](NC5COC5)C4)c4cn(C)nc34)cc(F)c2n1` [Compound 531, N-{8-fluoro-2-methylimidazo[1,2-a]pyridin-6-yl}-2-methyl-4-[(3R)-3-(oxetan-3-ylamino)pyrrolidin-1-yl]indazole-7-carboxamide]: in the experiment with HTT mRNA, the negative logarithm of the IC50 (pIC50) was 5.00 to 6.00 and the AC50 fell in the range of 1000 to 10000 nM. In the experiment with MYB mRNA, the concentration at half-maximal activity (AC50) was 1000 to 10000 nM and the negative-log IC50 (pIC50) is 6.00 to 7.00.
Take `Cc1cn2cc(NC(=O)c3ccc(N4CC[C@@H](NC5CCC5)C4)c4cn(C)nc34)cc(F)c2n1` [Compound 533, (R)-4-(3-(cyclobutylamino)pyrrolidin-1-yl)-N-(8-fluoro-2-methylimidazo[1,2-a]pyridin-6-yl)-2-methyl-2H-indazole-7-carboxamide]: in the experiment with HTT mRNA, the negative-log IC50 (pIC50) is 5.00 to 6.00 and the AC50 lay within 1000 to 10000 nM. In addition, in the experiment with MYB mRNA, the AC50 is under 100 nM and the pIC50 was over 7.00.
The matching figures for `CCn1cc2c(N3CCN[C@@H](C(C)C)C3)ccc(C(=O)Nc3cc(F)c4nc(C)cn4c3)c2n1` [Compound 535, 2-ethyl-N-{8-fluoro-2-methylimidazo[1,2-a]pyridin-6-yl}-4-[(3 S)-3-isopropylpiperazin-1-yl]indazole-7-carboxamide]: under 5.00, over 10000 nM, 100 to 1000 nM and 6.00 to 7.00.
On the same counts, the results for `CCn1cc2c(N3CCN4CCOC[C@H]4C3)ccc(C(=O)Nc3cc(F)c4nc(C)cn4c3)c2n1` [Compound 537, 4-[(9aR)-hexahydro-1H-pyrazino[2,1-c][1,4]oxazin-8-yl]-2-ethyl-N-{8-fluoro-2-methylimidazo[1,2-a]pyridin-6-yl}indazole-7-carboxamide] are under 5.00, over 10000 nM, 1000 to 10000 nM and 5.00 to 6.00.
Regarding `CCn1cc2c(N3CCN4CCOC[C@@H]4C3)ccc(C(=O)Nc3cc(F)c4nc(C)cn4c3)c2n1` [Compound 538, 4-[(9aS)-hexahydro-1H-pyrazino[2,1-c][1,4]oxazin-8-yl]-2-ethyl-N-{8-fluoro-2-methylimidazo[1,2-a]pyridin-6-yl} indazole-7-carboxamide], in the experiment on HTT mRNA, the pIC50 was 5.00 to 6.00 and the AC50 fell in the range of 1000 to 10000 nM. In the experiment with MYB mRNA, the AC50 lay in the range of 1000 to 10000 nM and the pIC50 was 5.00 to 6.00.
Regarding `CCn1cc2c(N3CCC(C)(N)C3)ccc(C(=O)Nc3cc(F)c4nc(C)cn4c3)c2n1` (stereo not drawn) [Compound 539, 4-(3-amino-3-methylpyrrolidin-1-yl)-2-ethyl-N-{8-fluoro-2-methylimidazo[1,2-a]pyridin-6-yl}indazole-7-carboxamide], in the experiment with HTT mRNA, the pIC50 is under 5.00 and the concentration at half-maximal activity (AC50) was over 10000 nM. Further, in the experiment with MYB mRNA, the AC50 was 1000 to 10000 nM and the negative-log IC50 (pIC50) was 5.00 to 6.00.
The matching figures for `CCn1cc2c(N3CCN[C@@H](C4CC4)C3)ccc(C(=O)Nc3cc(F)c4nc(C)cn4c3)c2n1` [Compound 541, 4-[(3S)-3-cyclopropylpiperazin-1-yl]-2-ethyl-N-{8-fluoro-2-methylimidazo[1,2-a]pyridin-6-yl}indazole-7-carboxamide]: under 5.00, over 10000 nM, 100 to 1000 nM and 6.00 to 7.00.
The matching figures for `CCn1cc2c(N3CCN[C@H](C4CC4)C3)ccc(C(=O)Nc3cc(F)c4nc(C)cn4c3)c2n1` [Compound 542, 4-[(3R)-3-cyclopropylpiperazin-1-yl]-2-ethyl-N-{8-fluoro-2-methylimidazo[1,2-a]pyridin-6-yl}indazole-7-carboxamide]: 5.00 to 6.00, 1000 to 10000 nM, 100 to 1000 nM and 6.00 to 7.00.
On the same counts, the results for `CCn1cc2c(N3CCC(NC4CCC4)CC3)ccc(C(=O)Nc3cc(F)c4nc(C)cn4c3)c2n1` [Compound 543, 4-[4-(cyclobutylamino)piperidin-1-yl]-2-ethyl-N-{8-fluoro-2-methylimidazo[1,2-a]pyridin-6-yl}indazole-7-carboxamide] are 5.00 to 6.00, 1000 to 10000 nM, under 100 nM and over 7.00.
Take `CCn1cc2c(N3CCC(C)(NC)C3)ccc(C(=O)Nc3cc(F)c4nc(C)cn4c3)c2n1` (stereo not drawn) [Compound 544, 2-ethyl-N-{8-fluoro-2-methylimidazo[1,2-a]pyridin-6-yl}-4-[3-methyl-3-(methylamino)pyrrolidin-1-yl]indazole-7-carboxamide]: in the experiment on HTT mRNA, the pIC50 is under 5.00 and the concentration at half-maximal activity (AC50) was over 10000 nM. Also, in the experiment with MYB mRNA, the AC50 lay within 1000 to 10000 nM and the negative logarithm of the IC50 (pIC50) is 5.00 to 6.00.
For `CCn1cc2c(N(C)C3CCNCC3)ccc(C(=O)Nc3cc(F)c4nc(C)cn4c3)c2n1` [Compound 545, 2-ethyl-N-(8-fluoro-2-methylimidazo[1,2-a]pyridin-6-yl)-4-(methyl(piperidin-4-yl)amino)-2H-indazole-7-carboxamide], in the experiment on HTT mRNA, the pIC50 is 5.00 to 6.00 and the AC50 is over 10000 nM. In addition, in the experiment on MYB mRNA, the AC50 is 100 to 1000 nM and the pIC50 was 6.00 to 7.00.
Consider `CCn1cc2c(N3CC[C@@](C)(NC)C3)ccc(C(=O)Nc3cc(F)c4nc(C)cn4c3)c2n1` [Compound 547, 2-ethyl-N-{8-fluoro-2-methylimidazo[1,2-a]pyridin-6-yl}-4-[(3R)-3-methyl-3-(methylamino)pyrrolidin-1-yl]indazole-7-carboxamide], for which the negative logarithm of the IC50 (pIC50) in the experiment on HTT mRNA and in the experiment on MYB mRNA was under 5.00 in each case. For the same compound, the AC50 in the experiment on HTT mRNA and in the experiment with MYB mRNA was over 10000 nM throughout.

What is called pIC50 is −log10 of the IC50, conventionally taken in molar units. As usually defined, the AC50 is the midpoint of the concentration-response curve, whichever way the signal moves.

(Values after US20250154169A1, “COMPOUNDS AND METHODS FOR MODULATING SPLICING” (REMIX THERAPEUTICS INC., priority 2021, published 2025).)
